Laboratory results taken from patent publication US20250276993A1, “PSEUDO-DISACCHARIDE COMPOUNDS” (UNIVERSITEIT LEIDEN, priority 2022, published 2025).

Columns and labels:
GUSB = target: T1, GUSB (Homo sapiens, UniProt P08236); assay: cABPP Assay 2, platelet lysates, GUSB; type: biochemical; conditions: preincubation with inhibitor
T1 construct: Platelet lysates contain complex mixtures of overlapping enzyme activities, including both endo- and exo-β-glucuronidases HPSE and GUSB; endogenous in cells; host or cells: human platelet lysates
T1 sequence (P08236 23-651): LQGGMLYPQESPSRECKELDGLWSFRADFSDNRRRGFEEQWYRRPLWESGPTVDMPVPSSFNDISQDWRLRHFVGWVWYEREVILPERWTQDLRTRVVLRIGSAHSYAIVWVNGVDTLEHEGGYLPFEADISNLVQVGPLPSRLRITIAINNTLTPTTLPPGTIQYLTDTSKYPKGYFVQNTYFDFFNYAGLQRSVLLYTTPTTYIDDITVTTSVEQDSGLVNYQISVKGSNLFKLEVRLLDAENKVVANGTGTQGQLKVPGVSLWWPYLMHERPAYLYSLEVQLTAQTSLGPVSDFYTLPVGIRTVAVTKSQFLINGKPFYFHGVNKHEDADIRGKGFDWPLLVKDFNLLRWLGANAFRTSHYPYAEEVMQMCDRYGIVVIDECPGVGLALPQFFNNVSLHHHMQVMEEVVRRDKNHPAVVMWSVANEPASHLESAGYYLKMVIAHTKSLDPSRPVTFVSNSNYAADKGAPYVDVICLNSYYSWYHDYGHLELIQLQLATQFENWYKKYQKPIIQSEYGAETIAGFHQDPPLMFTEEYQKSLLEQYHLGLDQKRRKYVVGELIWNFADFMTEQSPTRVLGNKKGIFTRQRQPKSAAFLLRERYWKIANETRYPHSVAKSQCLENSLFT
Experimental: For further competitive ABPP studies, a working protein mixture was prepared by mixing the platelet lysates (87.5 μL), buffer (pH 5.0, 150 mM, 157.5 μL) and 3 M NaCl solution (35 μL). The enzymatic reactions were carried out at a constant concentration of read-out 7 (100 nM, final). For each inhibitor 2, 12 and 13, triplicate sets of ten 0.5 mL low protein binding Eppendorf tubes were prepared. Working solutions of each inhibitor (1% DMSO (w/v), 5 μL) in a range of ten concentrations (100, 50, 25, 12.5, 6.3, 3.1, 1.6, 0.8, 0.4, 0 μM) were prepared with MilliQ water and kept on ice. The working protein mixture (8 μL) was added in each protein low binding 0.5 mL Eppendorf tube, and 1 μL of inhibitor solution was added while on ice.
Further cABPP studies were undertaken using platelet lysates to provide a more physiologically realistic environment. Platelet lysates contain complex mixtures of overlapping enzyme activities, including both endo- and exo-β-glucuronidases HPSE and GUSB respectively, thus provide a challenging environment to test inhibitor specificity.

[1] = system: HPSE in U87 glioma-cell lysates; assay: HSPG digest assay, U87 cell lysates; type: cell-based, human; conditions: inhibitor applied before or after cell lysis, comparable H35S solubilization profiles
Experimental: ECM coated 35 mm culture dishes containing ^35S labelled HS were prepared as previously described (Vlodavsky et al., Curr. Protoc. Cell. Biol., Chapter 10, Unit 10, 14). Briefly, bovine corneal endothelial cells were plated at an initial density of 2×10^5 cells/ml, with 4% dextran T-40 (Sigma) included in the growth medium. Na2^35SO4 (25 μCi/ml) was added to the incubation medium on days 2 and 5 after seeding. On day 12, subendothelial ECM is exposed by dissolving the cells with PBS containing 0.5% Triton X-100 and 20 mM NH4OH, followed by four washes with PBS. For HS-degradation assays, ECM coated dishes were incubated with 200 ng recombinant HPSE in 1 mL reaction mixture (10 mM buffer Phosphate-Citrate pH 6.0, 50 mM NaCl, 1 mM DTT, 1 mM CaCl2) containing HPSE inhibitors or DMSO control. Plates were incubated at 37° C. for 5 h, then assay medium collected and applied to a 0.9×30 cm Sepharose 6B size exclusion column. The Sepharose 6B column was eluted with PBS, and ^35S radioactivity of 0.2 mL fractions quantitated using a liquid scintillation analyzer (Packard BioScience). Digest assays with U87 cell lysates were carried out in a similar fashion, except plates were incubated for 18 h with cell extracts prepared from 1×10^6 U87 glioma cells lysed by 3× freeze/thaw cycles.

effect on GUS signals (GUSB): without altering GUS signals
Compound: CC(=O)NC1C(O)[C@H](O)C(CO)O[C@@H]1O[C@H]1C(O)C(O)[C@@H]2OC2C1C(=O)O (stereo partly drawn) [Compound 2, 4-O-(2-N-acetyl-2-deoxy-D-glucopyranosyl)-glucurono-cyclophellitol]
cell penetration / inhibition of intracellular HPSE pool [1]: can penetrate cells to inhibit the intracellular HPSE pool
